The test system of one experiment is KB. The experiment can be described thus: Cytotoxicity against human KB cells. The experiment is classed as functional, cell-based.
The subject of a further experiment is LoVo. The experiment can be described thus: Cytotoxicity against human LoVo cells. The experiment is classed as functional, cell-based.
The nature of experiment [1]: Inhibition of trypsin.
Experiment [2] in a line: Inhibition of chymotrypsin.
In the next experiment the target is T1, Papain (Carica papaya) (UniProt P00784).
T1 sequence (whole entry): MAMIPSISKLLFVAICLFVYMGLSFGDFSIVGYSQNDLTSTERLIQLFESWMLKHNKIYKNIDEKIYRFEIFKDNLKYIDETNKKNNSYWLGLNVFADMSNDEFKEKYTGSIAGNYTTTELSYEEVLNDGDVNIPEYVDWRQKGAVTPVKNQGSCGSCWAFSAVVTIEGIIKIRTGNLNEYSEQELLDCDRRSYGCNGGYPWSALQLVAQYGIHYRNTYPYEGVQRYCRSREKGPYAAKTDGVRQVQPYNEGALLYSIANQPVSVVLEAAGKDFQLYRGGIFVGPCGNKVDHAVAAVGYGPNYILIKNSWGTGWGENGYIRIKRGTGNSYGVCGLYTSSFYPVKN
The experiment can be described thus: Inhibition of Papaya papain.

Experiment [3] can be described thus: Inhibition of elastase.
Experiment [4] concerns the target Prothrombin (Homo sapiens) (UniProt P00734). The experiment can be described thus: Inhibition of thrombin.
Experiment [5] is described as follows: Induction of elastase activity.

≈ marks a conversion by molar mass, not a printed value. Calls of active or inactive are those of the source. The calls are words filed in the database; no cut-off is given here. Square brackets hold non-standard residues; d marks the D form. Peptide text beside a SMILES is read from it. * marks the point of attachment. Octanoyl(2R-Me,7,8-dehydro) = C=CCCCC[C@@H](C)C(=O)*; Oct7ynoyl(2R-Me) = C#CCCCC[C@@H](C)C(=O)*; NMeY = CN[C@@H](Cc1ccc(O)cc1)C(=O)O; Oct(7)ynoyl = C#CCCCCCC(=O)*; NMeV = CN[C@H](C(=O)O)C(C)C; X2 = c1csc([C@@H]2CCCN2*)n1; NMeA = CN[C@@H](C)C(=O)O; X1 = CN(Cc1nccs1)*

Consider `C#CCCCC[C@@H](C)C(=O)N(C)[C@@H](C)C(=O)N(C)[C@H](C(=O)N1CCC[C@H]1C(=O)N(C)[C@H](C(=O)N(C)[C@H](C(=O)N(C)[C@@H](Cc1ccc(OC)cc1)C(=O)N(C)Cc1nccs1)C(C)C)C(C)C)C(C)C` ({Oct7ynoyl(2R-Me)}-[NMeA][NMeV]P[NMeV][NMeV][NMeY](Me)-X1), for which the result (with KB; in the experiment with LoVo; in experiment [3]) was inactive. Besides, the outcome (in experiment [1]; in experiment [2]; on Papain (Carica papaya); in experiment [4]; in experiment [5]) was Active.
In general, IC50 refers to the concentration needed to halve the response being measured. High values mean lower potency, low ones higher potency. Take `C#CCCCC[C@@H](C)C(=O)N(C)[C@@H](C)C(=O)N(C)[C@H](C(=O)N(C)[C@H](C(=O)N(C)[C@H](C(=O)N(C)[C@H](C(=O)N1CCC[C@H]1c1nccs1)C(C)C)C(C)C)C(C)C)C(C)C` [APRAMIDE G] ({Oct7ynoyl(2R-Me)}-[NMeA][NMeV][NMeV][NMeV][NMeV]-X2): the half-maximal inhibitory concentration (IC50) was determined as 0.033 µg/mL (≈ 0.0398 µM) with KB and 0.011 µg/mL (≈ 0.0133 µM) in the experiment on LoVo.
`C#CCCCC[C@@H](C)C(=O)N(C)[C@@H](C)C(=O)N(C)[C@H](C(=O)N1CCC[C@H]1C(=O)N(C)[C@H](C(=O)N(C)[C@H](C(=O)N(C)[C@@H](Cc1ccc(OC)cc1)C(=O)N1CCC[C@H]1c1nccs1)C(C)C)C(C)C)C(C)C` ({Oct7ynoyl(2R-Me)}-[NMeA][NMeV]P[NMeV][NMeV][NMeY](Me)-X2): the outcome with KB and with LoVo was inactive.
Take `C=CCCCC[C@@H](C)C(=O)N(C)[C@@H](C)C(=O)N(C)[C@H](C(=O)N1CCC[C@H]1C(=O)N(C)[C@H](C(=O)N(C)[C@H](C(=O)N(C)[C@@H](Cc1ccc(OC)cc1)C(=O)N1CCC[C@H]1c1nccs1)C(C)C)C(C)C)C(C)C` ({Octanoyl(2R-Me,7,8-dehydro)}-[NMeA][NMeV]P[NMeV][NMeV][NMeY](Me)-X2): the outcome with KB and in the experiment on LoVo was inactive.
Turning to `C#CCCCCCC(=O)N(C)[C@@H](C)C(=O)N(C)[C@H](C(=O)N1CCC[C@H]1C(=O)N(C)[C@H](C(=O)N(C)[C@H](C(=O)N(C)[C@@H](Cc1ccc(OC)cc1)C(=O)N1CCC[C@H]1c1nccs1)C(C)C)C(C)C)C(C)C` ({Oct(7)ynoyl}-[NMeA][NMeV]P[NMeV][NMeV][NMeY](Me)-X2), the result in the experiment on KB and with LoVo was inactive.
On to `C#CCCCCCC(=O)N(C)[C@@H](C)C(=O)N(C)[C@H](C(=O)N1CCC[C@H]1C(=O)N(C)[C@H](C(=O)N(C)[C@H](C(=O)N(C)[C@@H](Cc1ccc(OC)cc1)C(=O)N(C)Cc1nccs1)C(C)C)C(C)C)C(C)C` ({Oct(7)ynoyl}-[NMeA][NMeV]P[NMeV][NMeV][NMeY](Me)-X1), for which the result in the experiment on KB and in the experiment on LoVo was inactive.
With `C=CCCCC[C@@H](C)C(=O)N(C)[C@@H](C)C(=O)N(C)[C@H](C(=O)N1CCC[C@H]1C(=O)N(C)[C@H](C(=O)N(C)[C@H](C(=O)N(C)[C@@H](Cc1ccc(OC)cc1)C(=O)N(C)Cc1nccs1)C(C)C)C(C)C)C(C)C` ({Octanoyl(2R-Me,7,8-dehydro)}-[NMeA][NMeV]P[NMeV][NMeV][NMeY](Me)-X1), the result in the experiment on KB and in the experiment on LoVo was inactive.

The values are drawn from ChEMBL document CHEMBL1155565, “Apramides A-G, novel lipopeptides from the marine cyanobacterium Lyngbya majuscula” (J Nat Prod, 2000).
